As a reminder, the pIC50 is −log10 of the IC50, conventionally taken in molar units.

pIC50: −log10 of the molar value.

The test deals with T1, dihydrolipoamide acyltransferase (DlaT) (Mycobacterium tuberculosis, UniProt P9WIS7).
T1 sequence (P9WIS7 1-553): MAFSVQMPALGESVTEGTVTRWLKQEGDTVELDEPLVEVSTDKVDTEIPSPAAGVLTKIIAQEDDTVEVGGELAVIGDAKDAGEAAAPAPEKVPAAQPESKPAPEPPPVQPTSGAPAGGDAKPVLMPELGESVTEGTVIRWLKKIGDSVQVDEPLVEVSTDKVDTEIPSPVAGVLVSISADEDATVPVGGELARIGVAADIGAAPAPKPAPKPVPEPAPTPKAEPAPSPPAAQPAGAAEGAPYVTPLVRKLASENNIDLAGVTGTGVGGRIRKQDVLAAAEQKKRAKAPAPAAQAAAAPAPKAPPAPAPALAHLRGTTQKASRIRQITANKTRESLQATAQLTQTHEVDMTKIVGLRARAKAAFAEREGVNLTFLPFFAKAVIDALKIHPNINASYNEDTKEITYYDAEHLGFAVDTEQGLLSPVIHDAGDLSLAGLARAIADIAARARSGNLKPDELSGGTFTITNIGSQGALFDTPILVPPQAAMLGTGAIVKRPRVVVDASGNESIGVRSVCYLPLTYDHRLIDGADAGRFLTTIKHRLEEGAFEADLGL
Kind of test: DlaT inhibition (Dlat IC50); DTNB peroxidase assay with Lpd, DlaT and AhpD. Type of test: biochemical. Particulars: Table 1, Compounds A1 to A294; read-out: Dlat IC50 category.
On to `CC(C)(C)c1ccc(-c2ccc(C=C3SC(=S)N(c4ccc(O)c(C(=O)O)c4)C3=O)o2)cc1` [Compound A59], for which the pIC50 was over 5.00.

For the compound `O=C(O)COc1cccc(N2C(=O)C(=Cc3ccc(-c4ccc(Cl)cc4)o3)SC2=S)c1` [Compound A60], the pIC50 was 4.40 to 4.96.

Turning to `CC(C)c1cccc(-c2ccc(C=C3SC(=S)N(c4ccc(O)c(C(=O)O)c4)C3=O)o2)c1` [Compound A61], the negative logarithm of the IC50 (pIC50) is over 5.00.

`O=C(O)c1cc(N2C(=O)C(=Cc3ccc(-c4ccc(CSc5ccccc5)cc4)o3)SC2=S)ccc1O` [Compound A62]: the pIC50 is 4.40 to 4.96.

Consider `CC(C)c1cccc(-c2ccc(C=C3SC(=S)N(c4cccc(OCC(=O)O)c4)C3=O)o2)c1` [Compound A63], for which the pIC50 is over 5.00.

Regarding `CC(C)Cc1ccc(-c2ccc(C=C3SC(=S)N(c4cccc(C(=O)O)c4)C3=O)o2)cc1` [Compound A64], the pIC50 was over 5.00.

With `CC(C)Cc1ccc(-c2ccc(C=C3SC(=S)N(c4ccc(O)c(C(=O)O)c4)C3=O)o2)cc1` [Compound A65], the pIC50 was over 5.00.

On to `O=C(O)c1cc(N2C(=O)C(=Cc3ccc(-c4ccccc4Cl)o3)SC2=S)ccc1Cl` [Compound A66], for which the pIC50 was over 5.00.

In the case of `O=C(O)c1cc(N2C(=O)C(=Cc3ccc(-c4cccc(C(F)(F)F)c4)o3)SC2=S)ccc1Cl` [Compound A67], the pIC50 was over 5.00.

For the compound `O=C(O)c1cc(N2C(=O)C(=Cc3ccc(-c4ccc(Cl)cc4)o3)SC2=S)ccc1Cl` [Compound A68], the pIC50 is over 5.00.

As for `O=C(O)c1cc(N2C(=O)C(=Cc3ccc(-c4ccccc4OC(F)(F)F)o3)SC2=S)ccc1Cl` [Compound A69], the pIC50 is over 5.00.

`O=C(O)c1cccc(N2C(=O)C(=Cc3ccc(-c4ccccc4OC(F)(F)F)o3)SC2=S)c1` [Compound A70]: the pIC50 was over 5.00.

For `O=C(O)c1ccc(Cl)c(N2C(=O)C(=Cc3ccc(-c4ccccc4Cl)o3)SC2=S)c1` [Compound A71], the pIC50 is over 5.00.

For the compound `O=C(O)c1ccc(Cl)c(N2C(=O)C(=Cc3ccc(-c4ccc(Cl)cc4)o3)SC2=S)c1` [Compound A72], the pIC50 is over 5.00.

As to `O=C(O)c1ccc(Cl)c(N2C(=O)C(=Cc3ccc(-c4cccc(C(F)(F)F)c4)o3)SC2=S)c1` [Compound A73], the pIC50 was over 5.00.

Consider `COc1ccc(C(=O)O)cc1N1C(=O)C(=Cc2ccc(-c3ccccc3Cl)o2)SC1=S` [Compound A74], for which the pIC50 was over 5.00.

Turning to `NC(=O)c1cccc(N2C(=O)C(=Cc3ccc(-c4ccccc4Cl)o3)SC2=S)c1` [Compound A75], the pIC50 is 4.40 to 4.96.

Regarding `NC(=O)c1cccc(N2C(=O)C(=Cc3ccc(-c4cccc(C(F)(F)F)c4)o3)SC2=S)c1` [Compound A76], the negative-log IC50 (pIC50) was 4.40 to 4.96.

Take `NC(=O)c1cccc(N2C(=O)C(=Cc3ccc(-c4ccc(Cl)cc4)o3)SC2=S)c1` [Compound A77]: the pIC50 is 4.40 to 4.96.

With `Cc1ccc(C(=O)O)cc1N1C(=O)C(=Cc2ccc(-c3ccccc3Cl)o2)SC1=S` [Compound A78], the pIC50 is over 5.00.

Take `Cc1c(C(=O)O)cccc1N1C(=O)C(=Cc2ccc(-c3ccccc3Cl)o2)SC1=S` [Compound A79]: the pIC50 was over 5.00.

With `Cc1ccc(C(=O)O)cc1N1C(=O)C(=Cc2ccc(-c3ccc(C(C)(C)C)cc3)o2)SC1=S` [Compound A80], the negative-log IC50 (pIC50) was over 5.00.

Turning to `Cc1c(C(=O)O)cccc1N1C(=O)C(=Cc2ccc(-c3ccc(C(C)(C)C)cc3)o2)SC1=S` [Compound A81], the pIC50 was over 5.00.

In the case of `Cc1ccc(C(=O)O)cc1N1C(=O)C(=Cc2ccc(-c3ccc(C4CCCCC4)cc3)o2)SC1=S` [Compound A82], the pIC50 is over 5.00.

`Cc1c(C(=O)O)cccc1N1C(=O)C(=Cc2ccc(-c3ccc(C4CCCCC4)cc3)o2)SC1=S` [Compound A83]: the pIC50 was over 5.00.

In the case of `O=C(O)c1cccc(N2C(=O)C(=Cc3ccc(-c4ccc(Cc5ccc(Cl)cc5)cc4)o3)SC2=S)c1` [Compound A84], the pIC50 was over 5.00.

As to `COc1ccc(C(=O)O)cc1N1C(=O)C(=Cc2ccc(-c3cccc(C(F)(F)F)c3)o2)SC1=S` [Compound A86], the pIC50 is over 5.00.

Take `COc1ccc(C(=O)O)cc1N1C(=O)C(=Cc2ccc(-c3ccc(Cl)cc3)o2)SC1=S` [Compound A87]: the pIC50 was over 5.00.

`O=C(O)c1cc(N2C(=O)C(=Cc3ccc(-c4ccccc4Cl)o3)SC2=S)cc([N+](=O)[O-])c1` [Compound A88]: the pIC50 was over 5.00.

As to `O=C(O)c1cc(N2C(=O)C(=Cc3ccc(-c4cccc(C(F)(F)F)c4)o3)SC2=S)cc([N+](=O)[O-])c1` [Compound A89], the pIC50 is 4.40 to 4.96.

Take `O=C(O)c1cc(N2C(=O)C(=Cc3ccc(-c4ccc(Cl)cc4)o3)SC2=S)cc([N+](=O)[O-])c1` [Compound A90]: the negative logarithm of the IC50 (pIC50) was over 5.00.

Turning to `COc1ccc(C(=O)O)cc1N1C(=O)C(=Cc2ccc(-c3ccc(CC(C)C)cc3)o2)SC1=S` [Compound A91], the pIC50 is over 5.00.

As for `CC(C)Cc1ccc(-c2ccc(C=C3SC(=S)N(c4cc(C(=O)O)ccc4Cl)C3=O)o2)cc1` [Compound A92], the pIC50 is over 5.00.

Regarding `COc1ccc(C(=O)O)cc1N1C(=O)C(=Cc2ccc(-c3cccc(C(C)C)c3)o2)SC1=S` [Compound A93], the pIC50 was over 5.00.

For `O=C(O)c1cccc(N2C(=O)C(=Cc3ccc(-c4ccc(C5CCCC5)cc4)o3)SC2=S)c1` [Compound A94], the pIC50 was over 5.00.

With `CC(C)(c1ccccc1)c1ccc(-c2ccc(C=C3SC(=S)N(c4cccc(C(=O)O)c4)C3=O)o2)cc1` [Compound A95], the pIC50 was over 5.00.

Regarding `CC(C)(c1ccccc1)c1ccc(-c2ccc(C=C3SC(=S)N(c4cc(C(=O)O)ccc4Cl)C3=O)o2)cc1` [Compound A96], the pIC50 is over 5.00.

`COc1ccc(C(=O)O)cc1N1C(=O)C(=Cc2ccc(-c3ccc(C(C)(C)c4ccccc4)cc3)o2)SC1=S` [Compound A97]: the pIC50 was 4.40 to 4.96.

As for `Cc1c(C(=O)O)cccc1N1C(=O)C(=Cc2ccc(-c3ccc(C(C)(C)c4ccccc4)cc3)o2)SC1=S` [Compound A98], the pIC50 is over 5.00.

As to `O=C(O)c1ccc(F)c(N2C(=O)C(=Cc3ccc(-c4ccccc4Cl)o3)SC2=S)c1` [Compound A99], the pIC50 is over 5.00.

Consider `CC(C)(C)c1ccc(-c2ccc(C=C3SC(=S)N(c4cc(C(=O)O)ccc4F)C3=O)o2)cc1` [Compound A100], for which the pIC50 was over 5.00.

As for `O=C(O)c1ccc(F)c(N2C(=O)C(=Cc3ccc(-c4ccc(C5CCCCC5)cc4)o3)SC2=S)c1` [Compound A101], the pIC50 is over 5.00.

For `Cc1ccc(C(=O)O)cc1N1C(=O)C(=Cc2ccc(-c3ccc(C(C)(C)c4ccccc4)cc3)o2)SC1=S` [Compound A102], the negative-log IC50 (pIC50) is over 5.00.

For the compound `O=C(O)c1ccc(F)c(N2C(=O)C(=Cc3ccc(-c4cccc(C(F)(F)F)c4)o3)SC2=S)c1` [Compound A103], the pIC50 is over 5.00.

For `O=C(O)c1ccc(F)c(N2C(=O)C(=Cc3ccc(-c4ccc(Cl)cc4)o3)SC2=S)c1` [Compound A104], the pIC50 was over 5.00.

On to `O=C(O)c1ccc(F)c(N2C(=O)C(=Cc3ccc(-c4ccc(Cl)c(Cl)c4)o3)SC2=S)c1` [Compound A105], for which the pIC50 was over 5.00.

Turning to `O=C(O)c1ccc(F)c(N2C(=O)C(=Cc3ccc(-c4c(Cl)cccc4Cl)o3)SC2=S)c1` [Compound A106], the pIC50 is over 5.00.

In the case of `O=C(O)c1ccc(Cl)c(N2C(=O)C(=Cc3ccc(-c4ccc(Cl)c(Cl)c4)o3)SC2=S)c1` [Compound A107], the pIC50 was over 5.00.

As for `O=C(O)c1cc(N2C(=O)C(=Cc3ccc(-c4ccc(Cl)c(Cl)c4)o3)SC2=S)ccc1Cl` [Compound A108], the pIC50 is over 5.00.

Regarding `O=C(O)c1cc(N2C(=O)C(=Cc3ccc(-c4c(Cl)cccc4Cl)o3)SC2=S)ccc1Cl` [Compound A109], the pIC50 was over 5.00.

`O=C(O)c1ccc(Cl)c(N2C(=O)C(=Cc3ccc(-c4c(Cl)cccc4Cl)o3)SC2=S)c1` [Compound A110]: the negative-log IC50 (pIC50) is over 5.00.

With `Cc1c(C(=O)O)cccc1N1C(=O)C(=Cc2ccc(-c3ccc(Cl)c(Cl)c3)o2)SC1=S` [Compound A111], the pIC50 is over 5.00.

`Cc1c(C(=O)O)cccc1N1C(=O)C(=Cc2ccc(-c3c(Cl)cccc3Cl)o2)SC1=S` [Compound A112]: the pIC50 was over 5.00.

In the case of `Cc1ccc(C(=O)O)cc1N1C(=O)C(=Cc2ccc(-c3ccc(Cl)c(Cl)c3)o2)SC1=S` [Compound A113], the pIC50 was over 5.00.

Turning to `Cc1ccc(C(=O)O)cc1N1C(=O)C(=Cc2ccc(-c3c(Cl)cccc3Cl)o2)SC1=S` [Compound A114], the pIC50 is over 5.00.

Take `O=C(O)c1cccc(N2C(=O)C(=Cc3ccc(-c4ccc(C(=O)O)c(O)c4)o3)SC2=S)c1` [Compound A115]: the pIC50 is 4.40 to 4.96.

On to `CN(C)c1ccc(-c2ccc(C=C3SC(=S)N(c4cccc(C(=O)O)c4)C3=O)o2)cc1` [Compound A116], for which the pIC50 is 4.40 to 4.96.

`O=C(O)c1cccc(N2C(=O)C(=Cc3ccc(-c4cccc(Cl)c4Cl)o3)SC2=S)c1` [Compound A117]: the pIC50 was over 5.00.

Turning to `O=C(O)CCc1cccc(N2C(=O)C(=Cc3ccc(-c4ccccc4Cl)o3)SC2=S)c1` [Compound A118], the pIC50 is over 5.00.

In the case of `O=C(O)CCc1cccc(N2C(=O)C(=Cc3ccc(-c4cccc(Cl)c4)o3)SC2=S)c1` [Compound A119], the pIC50 was over 5.00.

As to `O=C(O)CCc1cccc(N2C(=O)C(=Cc3ccc(-c4ccc(Cl)cc4)o3)SC2=S)c1` [Compound A120], the pIC50 was over 5.00.

The values above are taken from patent publication US8338465B2, “Cyclic carboxylic acid rhodanine derivatives for the treatment and prevention of tuberculosis” (priority 2006, dated 2012).
